Measured values reported in the supplement of paper PMC10307832.

Legend:
Experiment in all cases: relative viability (nuclei count vs DMSO), 5 days (fraction); higher = more cells survive
Bleomycin + OSI-027 = compound: CC1=C(N=C(N=C1N)[C@H](CC(=O)N)NC[C@@H](C(=O)N)N)C(=O)N[C@@H]([C@H](C2=CN=CN2)OC3C(C(C(C(O3)CO)O)O)OC4C(C(C(C(O4)CO)O)OC(=O)N)O)C(=O)N[C@H](C)[C@H]([C@H](C)C(=O)N[C@@H]([C@@H](C)O)C(=O)NCCC5=NC(=CS5)C6=NC(=CS6)C(=O)NCCC[S+](C)C)O [Bleomycin] + COc1cccc2cc(-c3nc([C@H]4CC[C@H](C(=O)O)CC4)n4ncnc(N)c34)[nH]c12 [OSI-027] (partner 0.5 µM); conditions: main component drawn
Outline: (§1)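 Relative viability is defined as nuclei in treated wells over nuclei in vehicle wells. Duplicate plates were run and medians reported. Lung cancer cell lines in 1536-well plates were dosed by pin tool one day after seeding, with one drug or with a fixed anchor-drug dose plus five library-drug doses (not always all listed) in √10 steps, and nuclei were counted after 5 days.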

Etoposide + OSI-027 = compound: COc1cc([C@@H]2c3cc4c(cc3[C@@H](O[C@@H]3O[C@@H]5CO[C@@H](C)O[C@H]5[C@H](O)[C@H]3O)[C@H]3COC(=O)[C@H]23)OCO4)cc(OC)c1O [Etoposide] + COc1cccc2cc(-c3nc([C@H]4CC[C@H](C(=O)O)CC4)n4ncnc(N)c34)[nH]c12 [OSI-027] (partner 0.5 µM)
Outline: as §1

Bleomycin + Crizotinib = compound: CC1=C(N=C(N=C1N)[C@H](CC(=O)N)NC[C@@H](C(=O)N)N)C(=O)N[C@@H]([C@H](C2=CN=CN2)OC3C(C(C(C(O3)CO)O)O)OC4C(C(C(C(O4)CO)O)OC(=O)N)O)C(=O)N[C@H](C)[C@H]([C@H](C)C(=O)N[C@@H]([C@@H](C)O)C(=O)NCCC5=NC(=CS5)C6=NC(=CS6)C(=O)NCCC[S+](C)C)O [Bleomycin] + C[C@@H](Oc1cc(-c2cnn(C3CCNCC3)c2)cnc1N)c1c(Cl)ccc(F)c1Cl [Crizotinib] (partner 1 µM); conditions: main component drawn
Outline: as §1

Bleomycin + Decitabine = compound: CC1=C(N=C(N=C1N)[C@H](CC(=O)N)NC[C@@H](C(=O)N)N)C(=O)N[C@@H]([C@H](C2=CN=CN2)OC3C(C(C(C(O3)CO)O)O)OC4C(C(C(C(O4)CO)O)OC(=O)N)O)C(=O)N[C@H](C)[C@H]([C@H](C)C(=O)N[C@@H]([C@@H](C)O)C(=O)NCCC5=NC(=CS5)C6=NC(=CS6)C(=O)NCCC[S+](C)C)O [Bleomycin] + Nc1ncn([C@H]2C[C@H](O)[C@@H](CO)O2)c(=O)n1 [Decitabine] (partner 2 µM); conditions: main component drawn
Outline: as §1

Row | Cell Line | relative viability (Bleomycin + OSI-027; first compound 0.01 µM) | relative viability (Bleomycin + OSI-027; first compound 0.03162 µM) | relative viability (Bleomycin + OSI-027; first compound 0.1 µM) | relative viability (Bleomycin + OSI-027; first compound 0.3162 µM) | relative viability (Bleomycin + OSI-027; first compound 1 µM) | relative viability (Etoposide + OSI-027; first compound 0.01 µM) | relative viability (Etoposide + OSI-027; first compound 0.03162 µM) | relative viability (Etoposide + OSI-027; first compound 0.1 µM) | relative viability (Etoposide + OSI-027; first compound 0.3162 µM) | relative viability (Etoposide + OSI-027; first compound 1 µM) | relative viability (Bleomycin + Crizotinib; first compound 0.01 µM) | relative viability (Bleomycin + Crizotinib; first compound 0.03162 µM) | relative viability (Bleomycin + Crizotinib; first compound 0.1 µM) | relative viability (Bleomycin + Crizotinib; first compound 0.3162 µM) | relative viability (Bleomycin + Crizotinib; first compound 1 µM) | relative viability (Bleomycin + Decitabine; first compound 0.01 µM) | relative viability (Bleomycin + Decitabine; first compound 0.03162 µM) | relative viability (Bleomycin + Decitabine; first compound 0.1 µM) | relative viability (Bleomycin + Decitabine; first compound 0.3162 µM) | relative viability (Bleomycin + Decitabine; first compound 1 µM)
1 | NCI-H838 | 0.347 | 0.269 | 0.186 | 0.173 | 0.174 | 0.37 | 0.43 | 0.307 | 0.403 | 0.325 | 0.437 | 0.32 | 0.184 | 0.176 | 0.172 | 0.398 | 0.369 | 0.297 | 0.228 | 0.478
2 | H3255 | 0.524 | 0.6 | 0.504 | 0.53 | 0.429 | 0.617 | 0.709 | 0.417 | 0.542 | 0.477 | 0.61 | 0.742 | 0.55 | 0.378 | 0.287 | 0.582 | 0.631 | 0.586 | 0.414 | 0.342
3 | SK-MES-1 | 0.506 | 0.588 | 0.57 | 0.262 | 0.16 | 0.523 | 0.616 | 0.544 | 0.437 | 0.189 | 0.83 | 0.86 | 0.753 | 0.309 | 0.213 | 0.321 | 0.356 | 0.305 | 0.177 | 0.164
4 | NCI-H1437 | 0.76 | 0.848 | 0.748 | 0.522 | 0.368 | 1.04 | 0.891 | 0.423 | 0.635 | 0.31 | 0.803 | 0.811 | 0.736 | 0.476 | 0.382 | 0.472 | 0.527 | 0.518 | 0.428 | 0.377
5 | LU99A | 0.253 | 0.289 | 0.259 | 0.234 | 0.161 | 0.307 | 0.343 | 0.242 | 0.308 | 0.228 | 0.344 | 0.358 | 0.284 | 0.12 | 0.16 | 0.77 | 0.809 | 0.64 | 0.448 | 0.211
6 | HCC-827 | 0.71 | 0.81 | 0.6 | 0.562 | 0.193 | 0.742 | 0.773 | 0.569 | 0.668 | 0.174 | 0.872 | 0.95 | 0.831 | 0.635 | 0.274 | 0.304 |  | 0.287 | 0.249 | 0.198
7 | LK-2 | 0.192 | 0.202 | 0.177 | 0.167 | 0.162 | 0.248 | 0.214 | 0.185 | 0.194 | 0.158 | 0.237 | 0.216 | 0.213 | 0.229 | 0.273 | 0.22 | 0.241 | 0.184 | 0.121 | 0.142
8 | HCC-366 | 0.675 | 0.643 | 0.471 | 0.122 | 0.119 | 0.911 | 1.16 | 0.466 | 0.374 | 0.0799 | 0.152 | 0.137 | 0.0986 | 0.0238 | 0.0225 | 0.242 | 0.26 | 0.132 | 0.069 | 0.0541
9 | BEN | 0.284 | 0.299 | 0.286 | 0.243 | 0.288 | 0.266 | 0.306 |  | 0.297 | 0.318 | 0.769 | 0.829 | 0.94 | 0.671 | 0.742 | 0.719 | 0.745 | 0.685 | 0.607 | 0.542
10 | NCI-H2347 | 0.338 | 0.505 | 0.373 | 0.199 | 0.303 | 0.365 | 0.338 | 0.325 | 0.358 | 0.32 | 0.707 | 0.677 | 0.744 | 0.362 | 0.515 | 0.572 | 0.635 | 0.543 | 0.514 | 0.488
11 | 201T | 0.649 | 0.77 | 0.634 | 0.407 | 0.207 | 0.6 | 0.693 | 0.641 | 0.566 | 0.283 | 0.997 | 0.947 | 0.902 | 0.843 | 0.784 | 0.839 | 0.816 | 0.677 | 0.735 | 0.561
12 | NCI-H2170 | 0.598 | 0.764 | 0.767 | 0.52 | 0.395 | 0.697 | 0.76 | 0.44 | 0.736 | 0.536 | 0.996 | 1.19 | 1.12 | 0.662 | 0.624 | 0.437 | 0.42 | 0.39 | 0.32 | 0.271
13 | NCI-H520 | 0.272 | 0.299 | 0.21 | 0.208 | 0.198 | 0.253 | 0.209 | 0.204 | 0.292 | 0.286 | 0.531 | 0.898 | 0.735 | 0.505 | 0.4 | 0.501 | 0.54 | 0.456 | 0.424 | 0.416
14 | NCI-H727 | 0.731 | 0.685 | 0.637 |  | 0.528 | 0.724 | 0.674 |  | 0.542 | 0.513 | 0.763 | 0.731 | 0.634 | 0.411 | 0.489 | 0.938 | 0.686 | 0.893 | 0.459 | 0.776
15 | HCC-15 | 0.645 | 0.612 | 0.533 | 0.182 | 0.152 | 0.785 | 0.718 | 0.563 | 0.291 | 0.144 | 0.731 | 0.725 | 0.627 | 0.326 | 0.242 | 0.591 | 0.639 | 0.543 | 0.336 | 0.276
16 | ABC-1 | 0.394 | 0.428 | 0.388 | 0.18 | 0.212 | 0.529 | 0.564 | 0.339 | 0.361 | 0.179 | 0.799 | 0.769 | 0.659 | 0.191 | 0.161 | 0.911 | 0.837 | 1.01 | 0.803 | 0.591
17 | LCLC-103H | 0.39 | 0.451 | 0.468 | 0.34 | 0.219 | 0.515 | 0.516 | 0.392 | 0.55 | 0.424 | 0.956 | 1.01 | 1 | 0.915 | 0.588 | 0.676 | 0.68 | 0.677 | 0.721 | 0.537
18 | NCI-H460 | 0.373 | 0.334 | 0.165 | 0.038 | 0.0308 | 0.601 | 0.731 | 0.415 | 0.0887 | 0.0402 | 0.331 | 0.0828 | 0.0648 | 0.0162 | 0.0149 | 0.301 | 0.228 | 0.279 | 0.0468 | 0.0408
19 | EPLC-272H | 0.258 | 0.257 | 0.21 | 0.147 | 0.149 | 0.287 | 0.293 | 0.209 | 0.326 | 0.243 | 0.776 | 0.88 | 0.655 | 0.358 | 0.152 | 0.358 | 0.343 | 0.301 | 0.171 | 0.129
